# Source: patent US20140323581A1, “TRANSCRIPTOME WIRING ANALYSIS IN PARKINSON'S DISEASE AND USES THEREOF” (THE TRUSTEES OF COLUMBIA UNIVERSITY IN THE CITY OF NEW YORK, priority 2011, published 2014)
# Entries after “also recorded” stand apart in the source; their conditions may differ. Where two headings read alike, the source gives them in different places. *1 amine or outer side, *2 acyl side, *3 side chain or, on linkers, in order; H or OH if unused. Where a SMILES comes first, the peptide text is derived from it. Bridges are numbered along the chain shown (N, C = ends). Roman numbers before positions name the chains, in order. [ ]: non-standard residue; d: D form. Actinocin(9to1) = Cc1c2oc3c(C)ccc(C(=O)[*:1])c3nc-2c(C(=O)[*:2])c(N)c1=O; NMeV = CN[C@H](C(=O)O)C(C)C; Sar = CNCC(=O)O
# What was measured:
# human aSyn protein = test: In vivo I-Dopa treatment of aSyn PAC transgenic mice, aSyn protein in brain tissue by ELISA; design: species or system mouse; conditions: 20 mg/kg i.p. daily for 5 days
# Method: (§1) Mitochondria were purified using Qproteome Mitochondria Isolation Kit (Qiagen) and membrane fractions were isolated using Subcellular Protein Fractionation Kit (Pierce) following manufacturers' instructions. Human aSyn protein levels were determined using the aSyn Human ELISA kit (Invitrogen). Absorbance was read on a VersaMax ELISA Microplate Reader (Molecular Devices, Inc) at 450 nm. The amount of human aSyn was normalized to total cellular protein as determined with the DC Protein Assay Reagent kit (Bio-Rad). Mitochondrial preparations were validated by Western blot analysis for Tom20 and synaptophysin (see FIG. 12d).
# (§2) 2-month old DAT-Cre/Dicer^flox/flox and DAT-Cre/Dicer^flox/+24 or forty-weeks old male PAC-Tg (SNCA)+/−;Snca+/− (a gift from Dr. Robert L. Nussbaum, University of California San Francisco, ^25) received 20 mg/kg I-Dopa with 12 mg/kg benserazide (or PBS vehicle only) by intraperitoneal injection daily for 5 days. […] 1 hour after the last dose, mice were anesthetized by inhaled isoflurane and the brains rapidly removed. The prefrontal cortex, striatum and midbrain were dissected out and stored at −80° C.
# aSynL:total ratio [1] = test: In vivo I-Dopa treatment of DAT-Cre/Dicer mice, aSynL:total ratio in brain tissue by RT-qPCR; design: species or system mouse
# Method: as §2
# (§3) RT-qPCR analyses were performed as described ^60.
# aSynL:total ratio [2] = test: aSynL:total ratio by RT-qPCR in rat primary cortical cultures; assay type: cell-based
# Method: (§4) Cultures of rodent neurons were prepared as described in ^53. Cells were maintained in vitro for 3-5 days before drug treatments or transfection using Lipofectamine 2000 (Iinvitrogen) following manufacturer's instructions.
# RT-qPCR analyses were performed as described ^60. The human aSynL:Total mRNA ratio was quantified in terms of AACt ^60 using primer pair Lh for the human long form (HaSynLfw [[…]] SEQ ID NO: 13, and HaSynLry [[…]]) SEQ ID NO: 14 and primer pair Th for human total (HaSynTfw [[…]] SEQ ID NO: 15 and HaSynTrv [[…]] SEQ ID NO: 16). For analysis of either mouse or rat, primer pairs mrL (RaSynLfw [[…]] SEQ ID NO: 17 and RaSynLrv [[…]] SEQ ID NO: 18) and mrT (RaSynTfw [[…]] SEQ ID NO: 19, RaSynTry [[…]] SEQ ID NO: 20) were used.
# aSynL:total ratio [3] = test: aSynL:total ratio in total RNA of SH-SY5Y cells by RT-qPCR (transcription inhibition); assay type: cell-based, human
# aSynL:total ratio [4] = tested on: aSynL:total ratio
# Method: Total RNA was isolated using a miRNeasy kit (Qiagen) and nascent RNA was purified using the Click-iT® Nascent RNA Capture Kit (Invitrogen) following manufacturer's instructions; total and nascent RNA were then subjected to RT-qPCR analysis as below.
# as §3
# aSyn protein [5] = test: aSyn protein by ELISA in mitochondrial and membrane fractions of SH-SY5Y cells; assay type: cell-based, human; conditions: 100 μM for 48 h
# Method: as §1
# aSynL:total ratio [6] = conditions: GFP-aSyn wild-type 1.1 kb 3′UTR plasmid, lysed after 48 h
# Method: Northern Blots were performed using the NorthernMax kit (Ambion) following manufacturer's instructions. 10 μg of total RNA was purified using miRNeasy kit (Qiagen) and loaded per lane.
# aSynL:total ratio [7] = test: In situ hybridization for aSyn CDS and long 3′UTR in primary cortical neuron cultures from aSyn PAC transgenic mice; assay type: cell-based; conditions: 100 μM for 24 h, DIV 4 PAC mouse cortical neurons
# Method: as §4
# In situ hybridization were performed using QuantiGene® ViewRNA ISH Cell Assay (Panomics) following manufacturer's instructions, with QG ViewRNA TYPE 8 Probe Sets (Panomics) designed to target either human aSyn CDS sequences (bases 264-634 from NM_000345.3; Panomics) or to target human aSynL 3′UTR sequences (bases 1180-1760 from NM_000345.3).
# human aSyn 3′UTR = test: Firefly luciferase-aSyn 3′UTR reporter assay in SH-SY5Y cells; assay type: cell-based; conditions: for dopamine-mediated increase in luciferase accumulation under VMAT2 overexpression: SH-SY5Y co-transfected with VMAT2 vector; for luciferase expression, Firefly/Renilla ratio, short aSyn 3′UTR vector: 100 μM for 24 hrs
# Method: The human SH-SY5Y neuroblastoma cell line (ATCC) was cultured following the distributor's instructions. Cells were plated at a density of 4×10^5 cells per well (in 48-well plates) in wells coated with 0.1% gelatin (Specialty Media, Millipore) 24 hours prior to transfection. Transfections were performed with Lipofectamine 2000 reagent (Invitrogen) following the manufacturer's instructions. The human HEK-293T cell line (ATCC) was cultured in DMEM (Invitrogen) supplemented with 10% FBS (Invitrogen). Cells were plated at a density of 8×10^3 cells per well (96-well plates). Mir-34b-3p precursor, specific Anti-miR Mir-34b-3p inhibitor, Anti-miR Negative Control #1, and Pre-miR Negative Control #1 were purchased from Ambion. Cells were co-transfected with luciferase reporter plasmids and a small RNA or inhibitor (as indicated) using siPort NeoFx reagent (Ambion) following manufacturer's protocol. Luciferase and Renilla activities were measured 24 h or 48 h after transfection using Dual-Glo luciferase assay system (Promega).
# aSyn protein [8] = test: Colocalization of aSyn and Mitotracker in primary cortical neuron cultures from PAC transgenic mice; assay type: cell-based; conditions: primary mouse cortical neurons, 100 μM for 24 h
# Method: as §4
# Immunostainings were done as previously described ^59 with Rabbit anti-aSyn (Santa Cruz, 1:200) or Mouse anti-Synaptophysin (Millipore, 1:100) as primary antibodies, and Alexa 555 goat anti-rabbit IgG or Alexa 633 goat anti-mouse IgG (Invitrogen) secondary antibodies. MitoTracker-Orange (Invitrogen, 1:10000) was added into media for 15-20 min in living cell culture. Collocalization analyses were done in R using EBImage package; using Pearson's correlation coefficient.
# aSyn protein [9] = test: Total endogenous aSyn protein by ELISA in SH-SY5Y cells; assay type: cell-based, human; conditions: 100 μM for 48 h
# Method: as §1
# aSyn translation = test: Endogenous aSyn protein by ELISA normalized to total aSyn mRNA in SH-SY5Y cells (aSyn translation); assay type: cell-based, human; conditions: dopamine 100 uM for 24 h
# Text: Mitochondria were purified using Qproteome Mitochondria Isolation Kit (Qiagen) and membrane fractions were isolated using Subcellular Protein Fractionation Kit (Pierce) following manufacturers' instructions. […] Absorbance was read on a VersaMax ELISA Microplate Reader (Molecular Devices, Inc) at 450 nm. The amount of human aSyn was normalized to total cellular protein as determined with the DC Protein Assay Reagent kit (Bio-Rad). Mitochondrial preparations were validated by Western blot analysis for Tom20 and synaptophysin (see FIG. 12d). RT-qPCR analyses were performed as described ^60. […] NO: 17 and […] NO: 18) […] NO: 19, […] NO: 20) were used. The human SH-SY5Y neuroblastoma cell line (ATCC) was cultured following the distributor's instructions. Cells were plated at a density of 4×10^5 cells per well (in 48-well plates) in wells coated with 0.1% gelatin (Specialty Media, Millipore) 24 hours prior to transfection. Transfections were performed with Lipofectamine 2000 reagent (Invitrogen) following the manufacturer's instructions. The human HEK-293T cell line (ATCC) was cultured in DMEM (Invitrogen) supplemented with 10% FBS (Invitrogen). Cells were plated at a density of 8×10^3 cells per well (96-well plates). […] Luciferase and Renilla activities were measured 24 h or 48 h after transfection using Dual-Glo luciferase assay system (Promega).
# [10] = rat primary cortical neurons, RT-qPCR, dopamine, picrotoxin, muscimol, NMDA 100 μM, kainic acid 50 μM, vs vehicle
smiles,measurement,setting,value
N[C@@H](Cc1ccc(O)c(O)c1)C(=O)O [I-Dopa],"human aSyn protein in midbrain (ELISA, normalized to total protein)",human aSyn protein,significantly increased
same,human aSyn protein in other brain regions such as striatum or cortex,human aSyn protein,not
same,aSynL:total ratio in midbrain tissue,"aSynL:total ratio [1]; 2 month-old control DAT-Cre/Dicer flox/+ mice, 20 mg/kg i.p. daily for 5 days with 12 mg/kg benserazide",significantly increased
same,aSynL:total ratio in midbrain tissue,"aSynL:total ratio [1]; DAT-Cre/Dicer flox/flox mice deficient in mDNs, 20 mg/kg i.p. daily for 5 days",did not alter
same,aSynL:total ratio in brain regions other than midbrain,"aSynL:total ratio [1]; such as striatal tissue, 20 mg/kg i.p. daily for 5 days",not apparent
CN[C@H](CC(=O)O)C(=O)O [NMDA],aSynL:total ratio,aSynL:total ratio [2]; [10],did not appear to impact
"Cc1c2oc3c(C)ccc(C(=O)N[C@@H]4C(=O)N[C@H](C(C)C)C(=O)N5CCC[C@H]5C(=O)N(C)CC(=O)N(C)[C@@H](C(C)C)C(=O)O[C@@H]4C)c3nc-2c(C(=O)N[C@@H]2C(=O)N[C@H](C(C)C)C(=O)N3CCC[C@H]3C(=O)N(C)CC(=O)N(C)[C@@H](C(C)C)C(=O)O[C@@H]2C)c(N)c1=O [actinomycin D] (I: T[dV]P[Sar][NMeV] / II: T[dV]P[Sar][NMeV]; ester I:1-I:C, II:1-II:C; linker I:N-II:N via Actinocin(9to1))",dopamine-mediated increase in aSynL:total ratio,"aSynL:total ratio [3]; actinomycin D 10 μg/mL with dopamine 100 μM, total RNA, 12 or 24 h",prevented the increase
NCCc1ccc(O)c(O)c1 [dopamine],aSynL:total ratio among the labeled RNA population,aSynL:total ratio [4]; 100 μM dopamine exclusively during the pulse-labeling period,robust and durable increase
same,aSynL:total ratio among the labeled RNA population,aSynL:total ratio [4]; 100 μM dopamine exclusively post-labeling (chase),did not produce any effect
same,treatment time after which the increase of the aSynL:total ratio is detectable in the nascent RNA population,"aSynL:total ratio [4]; SH-SY5Y, dopamine",≤ 4 h
same,treatment time for the dopamine effect on aSynL:total ratio to become detectable in the total RNA population,"aSynL:total ratio [4]; SH-SY5Y, dopamine",at least 16 hrs
same,increase in aSynL:total ratio in nascent RNA,"aSynL:total ratio [4]; dopamine 100 μM with EU for 4 h, captured EU-labeled RNA",robustly observed
same,increase in aSynL:total ratio in total RNA,"aSynL:total ratio [4]; dopamine 100 μM with EU for 4 h, total RNA",not in total RNA
same,aSyn content within total cell membrane fraction relative to whole cell lysate (ELISA),aSyn protein [5],decreased; also recorded: reduction
same,aSyn protein content in mitochondrial preparations relative to whole cell aSyn content (ELISA),aSyn protein [5],increased proportion; also recorded: preferentially increased
same,"aSynL (1070 nt 3′UTR) transcript relative to shorter (300 nt 3′UTR) transcript, Northern blot",aSynL:total ratio [6],increase
same,aSynL:total ratio (ratio of in situ hybridization signals),aSynL:total ratio [7],increase
same,dopamine-mediated increase in luciferase accumulation under VMAT2 overexpression,human aSyn 3′UTR; dopamine 100 μM for 48 h,suppressed
same,dopamine-mediated increase in luciferase accumulation under VMAT2 overexpression,"human aSyn 3′UTR; dopamine 100 μM for 48 h, listed as Dopamine",cancelled
same,"luciferase expression, Firefly/Renilla ratio, 1.1 kb human aSyn 3′UTR vector","human aSyn 3′UTR; SH-SY5Y, 100 μM for 24 h",increased
same,"luciferase expression, Firefly/Renilla ratio, short aSyn 3′UTR vector",human aSyn 3′UTR; SH-SY5Y,not observed
same,"luciferase expression, Firefly/Renilla ratio, short aSyn 3′UTR vector","human aSyn 3′UTR; SH-SY5Y, listed as Dopamine",do not influence
same,aSyn 3′UTR mediated translation (luciferase),"human aSyn 3′UTR; SH-SY5Y, vector control, dopamine 100 μM for 48 h",potentiates
same,aSynL:total ratio,"aSynL:total ratio [2]; dopamine 10 μM for 24 hrs, cells transfected with vector encoding DAT",significantly increased the sensitivity
same,aSynL:total ratio,"aSynL:total ratio [2]; low extracellular dopamine 10 μM for 24 h, no DAT overexpression",resistant
same,aSynL:total ratio,aSynL:total ratio [2]; [10],increase; also recorded: significantly increased
same,fraction of aSyn protein that colocalized with mitochondria (Mitotracker),aSyn protein [8],significantly increased
same,"endogenous aSyn protein levels (ELISA, normalized to total protein)",aSyn protein [9],significantly increased
same,aSyn translation: endogenous aSyn protein (ELISA) normalized to total aSyn mRNA,aSyn translation,significant increase
same,aSynL:total ratio in total RNA,"aSynL:total ratio [3]; SH-SY5Y, dopamine 100 μM, 24 h, no actinomycin D",increase
C=C(C)[C@H]1CN[C@H](C(=O)O)[C@H]1CC(=O)O [kainic acid],aSynL:total ratio,aSynL:total ratio [2]; [10],did not appear to impact
